Source: patent US20240239854A1, “ANTIMICROBIAL PEPTIDES AND MODIFICATIONS THEREOF” (Donald Danforth Plant Science Center, priority 2022, published 2024)
Converted amounts (≈) assume the structure as drawn. Positions of bridges follow the written chain, without caps; N, C: chain ends. Residues, ends and D or L forms follow the SMILES beside them.

Legend:
[1] = system: B. cinerea; assay: Semi-in planta drop inoculation assay on detached leaves of N. benthamiana, gray mold (Example 4); type: in vivo; conditions: for Reduction of gray mold symptoms at 3 and 6 μM: peptide 3 μM and 6 μM
[2] = system: Botrytis cinerea T-4
[3] = system: F. graminearum
[4] = system: B. cinerea

CC[C@H](C)[C@H](NC(=O)[C@H](CCCNC(=N)N)NC(=O)[C@H](CS)NC(=O)[C@H](CCCNC(=N)N)NC(=O)CNC(=O)[C@@H](N)CO)C(=O)N[C@@H](CC(C)C)C(=O)N[C@@H](Cc1ccccc1)C(=O)N[C@@H](CCCNC(=N)N)C(=O)N[C@@H](CS)C(=O)N[C@@H](Cc1ccccc1)C(=O)N[C@@H](CS)C(=O)N[C@H](C(=O)N[C@@H](CCCCN)C(=O)N[C@@H](CC(N)=O)C(=O)N[C@@H](CS)C(N)=O)[C@@H](C)O [GMA1C_V1] (H-SGRCRILFRCFCTKNC-NH2; N-terminus assumed)
Reduction of gray mold symptoms at 3 and 6 μM ([1]; drop inoculation assay): failed to reduce disease symptoms

CC[C@H](C)[C@@H]1NC(=O)[C@H](CCCNC(=N)N)NC(=O)[C@@H](NC(=O)[C@H](CCCNC(=N)N)NC(=O)CNC(=O)[C@@H](N)CO)CSSC[C@@H](C(N)=O)NC(=O)[C@H](CC(N)=O)NC(=O)[C@H](CCCCN)NC(=O)[C@H]([C@@H](C)O)NC(=O)[C@H](Cc2c[nH]c3ccccc23)NC(=O)[C@H](Cc2ccccc2)NC(=O)[C@H](Cc2c[nH]c3ccccc23)NC(=O)[C@H](CCCNC(=N)N)NC(=O)[C@H](Cc2ccccc2)NC(=O)[C@H](CC(C)C)NC1=O [GMA1C_V2] (H-SGRCRILFRWFWTKNC-NH2; disulfide 4-16; N-terminus assumed)
Reduction of gray mold symptoms at 1.5 μM ([1]; drop inoculation assay, peptide 1.5 μM): more effective than GMA1C_V1 | Reduction of gray mold symptoms at 3 and 6 μM ([1]; drop inoculation assay): completely abrogated gray mold symptoms | MIC (μM) SFM ([2]; Table 18, SFM): 1.5 to 3 µM | MIC (μM) (SFM + 2 mM CaCl2) ([2]; Table 18, SFM + 2 mM CaCl2): 3 µM | MIC (μM) (SFM + 100 mM KCl) ([2]; Table 18, SFM + 100 mM KCl): >12 µM | MIC (μM) (SFM + 100 mM NaCl) ([2]; Table 18, SFM + 100 mM NaCl): 3 µM

C[C@@H](O)[C@H](NC(=O)[C@H](CS)NC(=O)[C@H](Cc1ccccc1)NC(=O)[C@H](CS)NC(=O)[C@H](CCCNC(=N)N)NC(=O)[C@H](CCCNC(=N)N)NC(=O)[C@H](CCCNC(=N)N)NC(=O)[C@H](Cc1ccccc1)NC(=O)CNC(=O)[C@H](CCCNC(=N)N)NC(=O)[C@H](CS)NC(=O)[C@H](CCCNC(=N)N)NC(=O)CN)C(=O)N[C@H](C(=O)N[C@@H](Cc1c[nH]cn1)C(=O)N[C@@H](CS)C(N)=O)[C@@H](C)O [GMA4AC] (H-GRCRGFRRRCFCTTHC-NH2; N-terminus and C-terminus assumed)
MIC (μM) Fusarium graminearum [3]: 6 µM (≈ 11.8 µg/mL)

CC[C@H](C)[C@H](NC(=O)[C@H](CCCNC(=N)N)NC(=O)[C@@H](NC(=O)[C@H](Cc1c[nH]c2ccccc12)NC(=O)[C@H](Cc1ccccc1)NC(=O)[C@H](Cc1c[nH]c2ccccc12)NC(=O)[C@H](CCCNC(=N)N)NC(=O)[C@H](CCCNC(=N)N)NC(=O)[C@H](CCCNC(=N)N)NC(=O)[C@H](Cc1ccccc1)NC(=O)CNC(=O)[C@H](CCCCN)NC(=O)[C@H](CS)NC(=O)[C@H](CCCNC(=N)N)NC(=O)CNC(=O)CN)[C@@H](C)O)C(=O)N[C@@H](CS)C(N)=O [GMA4C_V6A] (H-GGRCKGFRRRWFWTRIC-NH2; N-terminus assumed)
B. cinerea MIC [4]: 0.75 µM | MIC (μM) Botrytis cinerea [4]: 0.75 µM (≈ 1.64 µg/mL) | MIC Values (μM) against B. cinerea [4]: 0.75 µM (≈ 1.64 µg/mL) | SFM + 2 mM CaCl2 MIC [4]: 3 to 6 µM | SFM + 100 mM KCl MIC [4]: 1.5 to 3 µM | SFM + 100 mM NaCl MIC [4]: 0.75 to 1.5 µM | SFM MIC [4]: 1.5 µM | Antifungal activity relative to the wild-type GMA4C_AC control ([4]; in vitro, low cationic conditions, B. cinerea): four-fold increase

CC(C)C[C@H](NC(=O)[C@H](CS)NC(=O)[C@H](C)NC(=O)CN)C(=O)N[C@@H](CCCCN)C(=O)N[C@@H](CC(N)=O)C(=O)N[C@@H](CCCNC(=N)N)C(=O)N[C@@H](Cc1c[nH]cn1)C(=O)N[C@@H](CO)C(=O)N[C@@H](CCCCN)C(=O)N[C@@H](Cc1c[nH]cn1)C(=O)N[C@@H](Cc1ccc(O)cc1)C(=O)NCC(=O)N[C@@H](CS)C(=O)N[C@@H](Cc1ccc(O)cc1)C(=O)N[C@@H](CS)C(=O)N[C@@H](Cc1ccc(O)cc1)C(=O)N[C@@H](Cc1ccc(O)cc1)C(=O)N[C@@H](CCCNC(=N)N)C(=O)N[C@@H](Cc1c[nH]cn1)C(=O)N[C@@H](CS)C(=O)N[C@@H](Cc1ccc(O)cc1)C(N)=O [GMAOe1C_WT] (H-GACLKNRHSKHYGCYCYYRHCY-NH2; N-terminus assumed)
Reduction of gray mold disease symptoms (lesion sizes) ([1]; detached N. benthamiana leaves, peptide 1.5, 3 and 6 μM, 48 h after inoculation): only effective at 6 μM
